The results in this text go back to patent US20190284136A1, “INDOLINE DERIVATIVES” (ViiV HEALTHCARE UK LIMITED, priority 2016, published 2019).

Molecules are shown by their SMILES.

In the first assay the test system is HIV. As to the kind of experiment: Table 1 IC50 of the examples (assay method not given; patent concerns inhibiting HIV replication).
Conditions: not given
The format is cell-based.
With `COc1c(F)cccc1C(=O)N1CCc2c1cc(C)c([C@H](OC(C)(C)C)C(=O)O)c2-c1cc(F)c2c(c1C)CCCO2` (atropisomer, axis not shown) [Example 45, (S)-2-(tert-Butoxy)-2-((R)-1-(3-fluoro-2-methoxybenzoyl)-4-(8-fluoro-5-methylchroman-6-yl)-6-methylindolin-5-yl)acetic acid], the IC50 stood at 1 nM.

Staying with this assay, now noted: Human immunodeficiency virus 1.
As to `Cc1cc2c(c(-c3cc(F)c4c(c3C)CCCO4)c1[C@H](OC(C)(C)C)C(=O)O)CCN2C(=O)c1ccc(C(F)(F)F)cc1` (atropisomer, axis not shown) [Example 46, (S)-2-(tert-Butoxy)-2-((R)-4-(8-fluoro-5-methylchroman-6-yl)-6-methyl-1-(4-(trifluoromethyl)benzoyl)indolin-5-yl)acetic acid], inhibition was half-maximal at 4 nM (IC50).

Take `Cc1cc(Cl)ccc1C(=O)N1CCc2c1cc(C)c([C@H](OC(C)(C)C)C(=O)O)c2-c1cc(F)c2c(c1C)CCCO2` (atropisomer, axis not shown) [Example 47, (S)-2-(tert-Butoxy)-2-((R)-1-(4-chloro-2-methylbenzoyl)-4-(8-fluoro-5-methylchroman-6-yl)-6-methylindolin-5-yl)acetic acid]: the IC50 was found to be 4 nM.

The compound `Cc1cc(C(=O)N2CCc3c2cc(C)c([C@H](OC(C)(C)C)C(=O)O)c3-c2cc(F)c3c(c2C)CCCO3)ccc1F` (atropisomer, axis not shown) [Example 48, (S)-2-(tert-Butoxy)-2-((R)-1-(4-fluoro-3-methylbenzoyl)-4-(8-fluoro-5-methylchroman-6-yl)-6-methylindolin-5-yl)acetic acid] showed an IC50 of 4 nM.

The compound `Cc1cc2c(c(-c3cc(F)c4c(c3C)CCCO4)c1[C@H](OC(C)(C)C)C(=O)O)CCN2C(=O)c1cccc(F)c1Cl` (atropisomer, axis not shown) [Example 49, (S)-2-(tert-Butoxy)-2-((R)-1-(2-chloro-3-fluorobenzoyl)-4-(8-fluoro-5-methylchroman-6-yl)-6-methylindolin-5-yl)acetic acid] registered an IC50 of 2 nM.

Compound `COc1ccc(Cl)cc1C(=O)N1CCc2c1cc(C)c([C@H](OC(C)(C)C)C(=O)O)c2-c1cc(F)c2c(c1C)CCCO2` (atropisomer, axis not shown) [Example 50, (S)-2-(tert-Butoxy)-2-((R)-1-(5-chloro-2-methoxybenzoyl)-4-(8-fluoro-5-methylchroman-6-yl)-6-methylindolin-5-yl)acetic acid] registered an IC50 of 5 nM.

The compound `Cc1cc2c(c(-c3cc(F)c4c(c3C)CCCO4)c1[C@H](OC(C)(C)C)C(=O)O)CCN2C(=O)c1cnccc1Cl` (atropisomer, axis not shown) [Example 51, (S)-2-(tert-Butoxy)-2-((R)-1-(4-chloronicotinoyl)-4-(8-fluoro-5-methylchroman-6-yl)-6-methylindolin-5-yl)acetic acid] had an IC50 of 17 nM.

Regarding `Cc1cc2c(c(-c3cc(F)c4c(c3C)CCCO4)c1[C@H](OC(C)(C)C)C(=O)O)CCN2C(=O)c1cccc(Cl)c1` (atropisomer, axis not shown) [Example 52, (S)-2-(tert-Butoxy)-2-((R)-1-(3-chlorobenzoyl)-4-(8-fluoro-5-methylchroman-6-yl)-6-methylindolin-5-yl)acetic acid], the IC50 amounted to 2 nM.

On to `Cc1ccccc1C(=O)N1CCc2c1cc(C)c([C@H](OC(C)(C)C)C(=O)O)c2-c1cc(F)c2c(c1C)CCCO2` (atropisomer, axis not shown) [Example 53, (S)-2-(tert-Butoxy)-2-((R)-4-(8-fluoro-5-methylchroman-6-yl)-6-methyl-1-(2-methylbenzoyl)indolin-5-yl)acetic acid], for which 3 nM corresponded to half-maximal inhibition (IC50).

Turning to `Cc1cc2c(c(-c3cc(F)c4c(c3C)CCCO4)c1[C@H](OC(C)(C)C)C(=O)O)CCN2C(=O)C1CCCC1` (atropisomer, axis not shown) [Example 54, (S)-2-(tert-Butoxy)-2-((R)-1-(cyclopentanecarbonyl)-4-(8-fluoro-5-methylchroman-6-yl)-6-methylindolin-5-yl)acetic acid], the IC50 came out at 12 nM.

On to `Cc1ccc(F)c(C(=O)N2CCc3c2cc(C)c([C@H](OC(C)(C)C)C(=O)O)c3-c2cc(F)c3c(c2C)CCCO3)c1` (atropisomer, axis not shown) [Example 55, (S)-2-(tert-Butoxy)-2-((R)-1-(2-fluoro-5-methylbenzoyl)-4-(8-fluoro-5-methylchroman-6-yl)-6-methylindolin-5-yl)acetic acid], for which inhibition was half-maximal at 6 nM (IC50).

Compound `Cc1cc2c(c(-c3cc(F)c4c(c3C)CCCO4)c1[C@H](OC(C)(C)C)C(=O)O)CCN2C(=O)c1ccc(Cl)c(F)c1` (atropisomer, axis not shown) [Example 56, (S)-2-(tert-Butoxy)-2-((R)-1-(4-chloro-3-fluorobenzoyl)-4-(8-fluoro-5-methylchroman-6-yl)-6-methylindolin-5-yl)acetic acid] came in with an IC50 of 2 nM.

In turn, `Cc1cc2c(c(-c3cc(F)c4c(c3C)CCCO4)c1[C@H](OC(C)(C)C)C(=O)O)CCN2C(=O)c1cc(F)cc(F)c1` (atropisomer, axis not shown) [Example 57, (S)-2-(tert-Butoxy)-2-((R)-1-(3,5-difluorobenzoyl)-4-(8-fluoro-5-methylchroman-6-yl)-6-methylindolin-5-yl)acetic acid] gave an IC50 of 2 nM.

Take `Cc1cc2c(c(-c3cc(F)c4c(c3C)CCCO4)c1[C@H](OC(C)(C)C)C(=O)O)CCN2C(=O)CCc1ccccc1` (atropisomer, axis not shown) [Example 58, (S)-2-(tert-Butoxy)-2-((R)-4-(8-fluoro-5-methylchroman-6-yl)-6-methyl-1-(3-phenyl/propanoyl)indolin-5-yl)acetic acid]: the IC50 was determined as 41 nM.

`Cc1cc2c(c(-c3cc(F)c4c(c3C)CCCO4)c1[C@H](OC(C)(C)C)C(=O)O)CCN2C(=O)c1cccc2c1CCCC2` (atropisomer, axis not shown) [Example 59, (S)-2-(tert-Butoxy)-2-((R)-4-(8-fluoro-5-methylchroman-6-yl)-6-methyl-1-(5,6,7,8-tetrahydronaphthalene-1-carbonyl)indolin-5-yl)acetic acid] displayed an IC50 of 6 nM.

The compound `Cc1cc2c(c(-c3cc(F)c4c(c3C)CCCO4)c1[C@H](OC(C)(C)C)C(=O)O)CCN2C(=O)c1ccc(F)cc1F` (atropisomer, axis not shown) [Example 60, (S)-2-(tert-Butoxy)-2-((R)-1-(2,4-difluorobenzoyl)-4-(8-fluoro-5-methylchroman-6-yl)-6-methylindolin-5-yl)acetic acid] returned an IC50 of 6 nM.

Compound `Cc1cc2c(c(-c3cc(F)c4c(c3C)CCCO4)c1[C@H](OC(C)(C)C)C(=O)O)CCN2C(=O)c1ccc(Cl)c(Cl)c1` (atropisomer, axis not shown) [Example 61, (S)-2-(tert-Butoxy)-2-((R)-1-(3,4-dichlorobenzoyl)-4-(8-fluoro-5-methylchroman-6-yl)-6-methylindolin-5-yl)acetic acid] had a half-inhibitory concentration (IC50) of 17 nM.

`Cc1cc(F)ccc1C(=O)N1CCc2c1cc(C)c([C@H](OC(C)(C)C)C(=O)O)c2-c1cc(F)c2c(c1C)CCCO2` (atropisomer, axis not shown) [Example 62, (S)-2-(tert-Butoxy)-2-((R)-1-(4-fluoro-2-methylbenzoyl)-4-(8-fluoro-5-methylchroman-6-yl)-6-methylindolin-5-yl)acetic acid] yielded a half-maximal inhibitory concentration (IC50) of 6 nM.

By IC50 is commonly meant the point on the concentration scale where inhibition reaches its midpoint.
